Laboratory results: publication PMC8373196, “In silico, in vitro, and ex vivo studies of the toxicological and pharmacological properties of the flavonoid 5,7-dihydroxy-3,8,4'-trimethoxy” (Brazilian Journal of Medical and Biological Research, 2021)
Read-outs that look alike come from different tables or passages of the source.

What was measured:
[1] = Hemolytic activity on human erythrocytes (in vitro); assay type: cell-based; conditions: both sexes; for hemolysis at 1 h, 1000 µg/mL: 0.5% red blood cell suspension, read-out: hemolysis rate
From the text: (§1) The in vitro and ex vivo assays followed the guidelines provided in the Ethics Code of the World Medical Association and were approved by the Ethics Committee of the Patos University Center (protocol number: 3.621.284). For cell pellet preparation, blood samples (A, B, and O), and buccal mucosa were used from healthy young adults of both sexes between 18 and 40 years of age.
For hemolytic activity, red blood cell (RBC) samples were mixed with 0.9% NaCl in a proportion of 1:30 and centrifuged for 5 min (1400 g, 28°C) to obtain a white blood cell and platelet-free 0.5% suspension. The tested substance (Pg-1) was added to 2 mL RBC suspensions at the concentrations of 50, 100, 500, and 1000 µg/mL. The control samples were divided into two groups: negative control - RBC suspension (0% hemolysis) and a positive control - RBC suspension with 1% Triton X-100 (100% hemolysis). The material was incubated for 1 h at 22±2°C. Afterwards, the samples were centrifuged for 5 min (1400 g, 28°C) and hemolysis was quantified by spectrophotometry at 540 nm wavelength ([6]).

oral mucosa cells = assay: Genotoxic effect on oral mucosa cells (ex vivo); assay type: cell-based, human
From the text: as §1
For evaluation of the genotoxic effect on oral mucosa cells, cell collection from the oral mucosa of the donors was performed with a cytobrush (smear brush collector) in the cheek area, and the material obtained was placed in 5 mL of 0.9% NaCl ([7]). Control samples were divided into two groups: cells treated with 0.0005% hydrogen peroxide (positive control) and cells not exposed to treatments (negative control). The cells were washed twice in saline solution and centrifuged for 10 min (900 g, 28°C). The cell pellets were re-suspended and kept in 5 mL of saline solution. After the third wash, they were exposed (ex vivo) to Pg-1 (50, 100, 500, and 1000 µg/mL) for 30 min; each test was performed in triplicate. The material was centrifuged for 5 min (900 g, 28°C) and the supernatant was removed before smear preparation. The cells were homogenized in a vortex and dried on the slides at room temperature for 15 min. Finally, they were fixed with a methanol:acetic acid mixture (3:1) for 15 min ([8]), and stained with 2% Giemsa. The cells were observed under an optical microscope and about 1000 cells were analyzed per slide. The data are reported as percentages representing the arithmetic average of three measurements ([9]). The cell toxicity was assessed by the presence of cellular indicators such as micronucleus, bi-nucleation, karyolysis, karyorrhexis, and macronucleus ([10]).

COc1ccc(-c2oc3c(OC)c(O)cc(O)c3c(=O)c2OC)cc1 [Pg-1, 5,7-dihydroxy-3,8,4'-trimethoxy]
hemolysis at 1 h ([1]; 0.5% red blood cell suspension (blood types A, B and O), all concentrations tested (50-1000 µg/mL), read-out: rate of hemolysis (class)): 0 to 40% | hemolysis at 1 h, 1000 µg/mL ([1]; type A blood): < 5% | hemolysis at 1 h, 1000 µg/mL ([1]; type B blood): < 17% | hemolysis at 1 h, 1000 µg/mL ([1]; type O blood): < 9% | Binucleation (%) (oral mucosa cells; 50 µg/mL, 30 min): 3.00±0.33 % | Karyolysis (%) (oral mucosa cells; 50 µg/mL, 30 min): 2.88±0.11 % | Karyorrhexis (%) (oral mucosa cells; 50 µg/mL, 30 min): 1.77±0.58 % | Macronucleus (%) (oral mucosa cells; 50 µg/mL, 30 min): 6.55±0.58% | Micronucleus (%) (oral mucosa cells; 50 µg/mL, 30 min): 0.55±0.11 % | Normal (%) (oral mucosa cells; 50 µg/mL, 30 min): 85.22±0.72 % | Binucleation (%) (oral mucosa cells; 100 µg/mL, 30 min): 1.77±0.58 % | Karyolysis (%) (oral mucosa cells; 100 µg/mL, 30 min): 2.44±0.44 % | Karyorrhexis (%) (oral mucosa cells; 100 µg/mL, 30 min): 7.33±0.19% | Macronucleus (%) (oral mucosa cells; 100 µg/mL, 30 min): 3.55±0.94 % | Micronucleus (%) (oral mucosa cells; 100 µg/mL, 30 min): 0.22±0.11 % | Normal (%) (oral mucosa cells; 100 µg/mL, 30 min): 84.67±1.07 % | Binucleation (%) (oral mucosa cells; 500 µg/mL, 30 min): 2.33±0.50 % | Karyolysis (%) (oral mucosa cells; 500 µg/mL, 30 min): 2.55±0.80 % | Karyorrhexis (%) (oral mucosa cells; 500 µg/mL, 30 min): 3.66±1.01 % | Macronucleus (%) (oral mucosa cells; 500 µg/mL, 30 min): 5.33±0.33% | Micronucleus (%) (oral mucosa cells; 500 µg/mL, 30 min): 0.22±0.11 % | Normal (%) (oral mucosa cells; 500 µg/mL, 30 min): 85.89±1.78 % | Binucleation (%) (oral mucosa cells; 1000 µg/mL, 30 min): 1.55±0.58 % | Karyolysis (%) (oral mucosa cells; 1000 µg/mL, 30 min): 1.44±0.22 % | Karyorrhexis (%) (oral mucosa cells; 1000 µg/mL, 30 min): 1.44±0.11 % | Macronucleus (%) (oral mucosa cells; 1000 µg/mL, 30 min): 3.66±0.19 % | Micronucleus (%) (oral mucosa cells; 1000 µg/mL, 30 min): 0.33±0.01 % | Normal (%) (oral mucosa cells; 1000 µg/mL, 30 min): 91.56±0.44 % | toxicity in genotoxicity testing (oral mucosa cells; all concentrations (50-1000 µg/mL)): low toxicity

OO [Positive control, hydrogen peroxide, reference compound]
Binucleation (%) (oral mucosa cells; 0.0005% hydrogen peroxide): 4.33±0.38% | Karyolysis (%) (oral mucosa cells; 0.0005% hydrogen peroxide): 5.44±0.72% | Karyorrhexis (%) (oral mucosa cells; 0.0005% hydrogen peroxide): 5.11±0.67% | Macronucleus (%) (oral mucosa cells; 0.0005% hydrogen peroxide): 4.55±0.80% | Micronucleus (%) (oral mucosa cells; 0.0005% hydrogen peroxide): 4.00±0.88% | Normal (%) (oral mucosa cells; 0.0005% hydrogen peroxide): 76.56±3.08% | Normal (%) (oral mucosa cells; 0.0005% hydrogen peroxide, listed as positive control): < 80%
